Test results: patent publication US20250145610A1, “CRYSTALLINE FORM OF ISAVUCONAZONIUM SULFATE AND A PROCESS FOR ITS PREPARATION” (Glenmark Life Sciences Limited, priority 2022, published 2025)
Counter-ions that a name gives are not always drawn.

Assay: Stability study of crystalline vs amorphous isavuconazonium sulfate: impurity content by HPLC after storage
Assay type: physicochemical
Conditions: for Impurity Compound IV content / Impurity Compound IX content / Impurity Compound VI content / Impurity Compound VII content / Impurity Compound VIII content / Impurity Compound X content: HPLC; for Storage stability (in words): 3 months at −20° C. and 2° to 8° C.
Procedure: High performance liquid chromatography (HPLC) was performed with the conditions described below for detecting chemical purity:
Column: Xterra MS C18, 150×4.6 mm, 3.5μ; Column Temperature: 45° C., Mobile phase: Mobile Phase A; 0.1% Perchloric acid in water: Mobile Phase B=Methanol
Diluent: Methanol: 0.3% Sodium bisulphate (70:30 v/v); Flow Rate: 1.0 mL/Minutes, Detection: 260 nm; Injection Volume: 20 μL.
Comparative stability data was generated for crystalline isavuconazonium sulfate (Form GL-1) and the amorphous form of isavuconazonium sulfate (prepared as described in Comparative Example 1) stored at a temperature of −20° C. and from 2° to 8° C. for three (3) months (i.e., 12 weeks). In particular, the crystalline isavuconazonium sulfate (Form GL-1) obtained as per Example 3 and the amorphous form of isavuconazonium sulfate of Comparative Example 1 were taken in an appropriate amount, and packed in a transparent polyethylene bag. The bag was sealed under vacuum and then enclosed in a black LDPE (Low-density polyethylene) bag which in turn is kept in triple laminated aluminium pouches sealed at three sides. The fourth side of the bag is then sealed under vacuum and kept in a HDPE (High-density polyethylene) container, and stored at −20° C. and from 2° to 8° C. for 3 months (i.e., 12 weeks). Both materials were analyzed after 3 months of storage by the HPLC method described above.

[1] = 3 Month at 2°-8° C., monosulfate salt
[2] = 3 Month at −20° C., monosulfate salt

SMILES	Impurity Compound IV content [1]	Impurity Compound IX content [1]	Impurity Compound VI content [1]	Impurity Compound VII content [1]	Impurity Compound VIII content [1]	Impurity Compound X content [1]	Impurity Compound IV content [2]	Impurity Compound IX content [2]	Impurity Compound VI content [2]	Impurity Compound VII content [2]	Impurity Compound VIII content [2]	Impurity Compound X content [2]	Impurity Compound IV content (Initial, monosulfate salt)	Impurity Compound IX content (Initial, monosulfate salt)	Impurity Compound VI content (Initial, monosulfate salt)	Impurity Compound VII content (Initial, monosulfate salt)	Impurity Compound VIII content (Initial, monosulfate salt)	Impurity Compound X content (Initial, monosulfate salt)	other results
CNCC(=O)OCc1cccnc1N(C)C(=O)OC(C)n1cn[n+](C[C@](O)(c2cc(F)ccc2F)[C@@H](C)c2nc(-c3ccc(C#N)cc3)cs2)c1 (stereo partly drawn) [Amorphous isavuconazonium sulfate prepared as per comparativ] [(2-{[(1-{1-[(2R,3R)-3-[4-(4-cyanophenyl)-1,3-thiazol-2-yl]-2-(2,5-difluorophenyl)-2-hydroxybutyl]-1H-1,2,4-triazol-4-ium-4-yl}ethoxy)carbonyl](methyl)amino}pyridin-3-yl)methyl-N-methylglycinate monosulfate salt, reference compound]	0.76%	2.5%	0.33%	0.12%	0.44%	0.04%	0.41%	1.26%	0.10%	0.12%	0.44%	0.03%	0.21%	0.51%	0.04%	0.12%	0.44%	0.03%	Stability of the solid form (in words) (generates impurities of formulae IV, VI, VII, VIII, IX, X and XI): unstable
CNCC(=O)OCc1cccnc1N(C)C(=O)OC(C)n1cn[n+](C[C@](O)(c2cc(F)ccc2F)[C@@H](C)c2nc(-c3ccc(C#N)cc3)cs2)c1 (stereo partly drawn) [Crystalline isavuconazonium sulfate (Form GL-1) of Example 3] [(2-{[(1-{1-[(2R,3R)-3-[4-(4-cyanophenyl)-1,3-thiazol-2-yl]-2-(2,5-difluorophenyl)-2-hydroxybutyl]-1H-1,2,4-triazol-4-ium-4-yl}ethoxy)carbonyl](methyl)amino}pyridin-3-yl)methyl-N-methylglycinate monosulfate salt]	0.07%	0.13%	0.03%	0.08%	0.02%	0.07%	0.05%	0.09%	0.02%	0.08%	0.03%	0.08%	0.03%	0.09%	0.01%	0.08%	0.03%	0.05%	Storage stability (in words) (listed as Form GL-1, monosulfate salt): more stable compared to the amorphous form of isavuconazonium sulfate; Storage stability (in words) (listed as crystalline isavuconazonium sulfate (Form GL-1), monosulfate salt): stable at 3 months; Period over which stability is maintained (stored at −20° C. and 2° to 8° C., sealed under vacuum): ≥ 3 months
